# In US20100119516A1, “ANTI-TGF-BETA RECEPTOR II ANTIBODIES” (priority 2008, published 2010):
# System: EMT6 mouse tumor cells
# Assay: EMT6 s.c. tumor model (monotherapy and combination with cyclophosphamide)
# Assay type: in vivo, mice
# Conditions: i.p. 3 times each week, mAb 40 mg/kg, CTX 80 mg/kg
# From the text: Athymic nude mice (Charles River Laboratories, Wilmington, Mass.), Balb/c mice, or C57B6 mice (Charles River Laboratories, Wilmington, Mass.) may be used for inoculation with mouse or human carcinoma cells. For treatment of established tumors in subcutaneous models, tumors may be allowed to grow to approximately 200 mm^3 in size, and then mice may be randomized into groups of 12-15 animals per group. In lung metastasis models, mice may be injected intravenously with tumor cells via tail vein. Animals may receive i.p. administered anti-TGFβRII mAb at a dose of 10-40 mg/kg three times each week. Mice in control groups may receive an equal volume of saline or normal IgG solution. […] Tumors may be measured twice each week with calipers. Tumor volumes may be calculated using the formula [π/6 (w1×w2×2)], where “w1” represents the largest tumor diameter and “w2” represents the smallest tumor diameter. […]
# The inhibitory activity of mAb MT1 against immunosuppressive cells, i.e. CD4/CD25/Foxp3/TGFβRII+Treg cells and Gr-1+/CD11b+/TGFβRII+ myeloid cells is evaluated in an EMT6 s.c. tumor model. The inhibitory effect of anti-TGFβRII antibody on Treg and Gr-1+/CD11b+ myeloid cell population in tumor-bearing mice may be determined by FACS analysis on the alteration of Gr-1+/CD11b+ population and CD4/CD25/Foxp3/TGFβRII+ and Gr-1+/CD11b+/TGFβRII+ population after treatment of mice with mAb MT1. […]
compound,measurement,value
"O=P1(N(CCCl)CCCl)NCCCO1 (centres unmarked) [CTX, Cyclophosphamide]",inhibition of primary tumor growth,62%
same,inhibition of spontaneous pulmonary metastasis,96%
